# What was measured:
# recombinant cathepsin L = recombinant cathepsin L (Homo sapiens, UniProt P07711); assay: Enzyme kinetics / turnover of quenched substrates with recombinant cathepsin L; type: biochemical; conditions: for Km / kcat: recombinant cathepsin L, 5 nM enzyme; for Km: 50 mM citrate buffer pH 5.5, 37° C., average of three replicates ± standard error; for kcat: citrate buffer pH 5.5, 37° C.; for increase in catalytic efficiency, spacer n=6 relative to n=2 analog: Cat L, 6CQ vs 2CQ, 6QC vs 2QC
# Experimental: (§1) The activity and selectivity of all 6 substrates were determined by monitoring the turnover curves of each internally quenched probe in the presence of various recombinant cysteine proteases, specifically cathepsins L, S, K, B, and V. Equal concentration (5 nM) of each enzyme was incubated with the different probes in 50 mM citrate buffer (pH=5.5, 5 mM DTT, 0.1% triton X, 0.5% CHAPS) at 37° C. The exact concentration of the various cathepsins used were confirmed by active site titration (Boucher et al. (2014) Methods Mol. Biol. 1133:3-39) using the covalent cysteine protease inhibitor ZFK-PMK and the commercial substrates Z-VVR-AMC for cathepsins S, L, B, and V, or Z-KR-AMC for cathepsin K. The rate of increase in Cy5 fluorescence (which is indicative of probe cleavage by cathepsins) was measured for each of the probes.
# recombinant cathepsin V = recombinant cathepsin V (Homo sapiens, UniProt O60911); assay: Enzyme kinetics / turnover of quenched substrates with recombinant cathepsin V; type: biochemical; conditions: for Km / kcat: recombinant cathepsin V, 5 nM enzyme; for Km: 50 mM citrate buffer pH 5.5, 37° C., average of three replicates ± standard error; for kcat: citrate buffer pH 5.5, 37° C.; for increase in efficiency, spacer n=6 relative to n=2 analog: Cat V, nCQ and nQC series respectively
# Experimental: as §1
# [1] = tested on: 4T1 tumors (tumor associated cysteine cathepsins); assay: Non-invasive optical imaging with Cy5 substrates, syngeneic orthotopic 4T1 mouse model of breast cancer; type: in vivo; conditions: for Cy5 fluorescence in frozen tumor sections: 24-hour endpoint, histology; for overall absolute fluorescence intensity in the tumors compared to non-lysosomotropic substrates 2CQ and 6CQ: intravenous, non-invasive imaging
# Experimental: In this model 4T1 cells are inoculated into the left number 1 and 10 mammary fat pad of mice to generate tumors. In order to determine the impact of the LLE, imaging signals of lysosomotropic probes 2QC (compound 5) and 6QC (compound 7) were directly compared to those of the non-lysosomotropic analogues 2CQ (compound 2) and 6CQ (compound 4). Substrates were administered to tumor-bearing mice intravenously, and mice were imaged at various time points following the administration. […] The intensity of the fluorescent signal reached a maximum at 4 hour after administration, followed by a decrease in the signal intensity (FIG. 4B). […] Furthermore, the intensity of the signal remained constant over a period of 24 hours in the tumors of mice administered with the LLE substrates, whereas the signals from the non-LLE substrates were almost completely cleared after 24 hours (FIGS. 4A and 4B). A similar trend was observed by ex vivo imaging of tumors excised from mice that had been euthanized after 4 hours and after 24 hours (FIG. 4C).
# In order to determine which populations of cells are responsible for activating the quenched substrate probes in vivo, immunofluorescence staining on frozen sliced sections of tumors isolated from mice injected with each substrate was performed using a macrophage-selective marker CD68. The Cy5 signal of the substrate co-localized to only CD68-positive cells (macrophages), with no signals observed in the 4T1 tumor cell (FIG. 5A). Moreover, Cy5 fluorescence was only observed in tissues from mice that received nQC substrates and not in tissues from mice treated with nCQ substrates (FIG. 5B).
# [2] = tested on: 4T1 tumors (tumor associated cysteine cathepsins); assay: Non-invasive imaging with NIR probes in 4T1 breast cancer model, IVIS-spectrum; type: in vivo, mouse; conditions: 24 hour time course
# Source text: The optimized substrate probes described above have therefore been tested in a clinically relevant model systems of FGS. […] In these compounds, the Cy5 chromophore was strategically substituted with a similar molecular weight near infrared (NIR) DyLight 780-B1 fluorophore. The compound with a linker having n=6 was chosen based on the optimal turnover numbers by cathepsins in vitro. The QSY21-sulfo quencher was also substituted with IRDye QC-1, which is a dark NIR quencher (FIG. 6A). In addition to being detectable on the camera system of the da Vinci robot, the emission wavelength of the NIR dye (absorption/emission maxima of 783/799 nm) falls within a window with low overall background and will therefore enhance tissue penetration and improve signal to background ratio during imaging. Richards-Kortum and Sevick-Muraca (1996) Annu. Rev. Phys. Chem. 47:555-606. The NIR probes were first analyzed as contrast agents in the 4T1 breast cancer model described above, using the IVIS-spectrum imaging system. Following systemic administration of the contrast agents, mice were imaged non-invasively every hour for 4 hours, and then at 6, 8, 12 and 24 hours post injection of the substrate. […] The intensity of the fluorescence signal in the tumors increased rapidly in mice injected with both types of probes, and it eventually peaked between 4 to 6 hours. […]
# recombinant cathepsin V, sequence (O60911 114-334): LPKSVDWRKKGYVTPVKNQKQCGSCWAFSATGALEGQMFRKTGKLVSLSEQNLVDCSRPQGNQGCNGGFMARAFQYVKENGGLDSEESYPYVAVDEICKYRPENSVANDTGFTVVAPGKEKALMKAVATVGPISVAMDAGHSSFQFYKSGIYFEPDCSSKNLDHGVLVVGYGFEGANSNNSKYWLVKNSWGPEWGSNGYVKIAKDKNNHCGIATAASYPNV
# recombinant cathepsin L, sequence (P07711 114-333, species assumed): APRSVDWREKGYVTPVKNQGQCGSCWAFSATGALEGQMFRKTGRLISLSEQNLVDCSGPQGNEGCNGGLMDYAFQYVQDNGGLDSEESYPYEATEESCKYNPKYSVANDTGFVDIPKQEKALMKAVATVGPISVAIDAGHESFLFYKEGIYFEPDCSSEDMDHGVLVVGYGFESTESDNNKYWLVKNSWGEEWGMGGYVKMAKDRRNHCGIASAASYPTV
Structure (SMILES),Km (recombinant cathepsin L) [µM],kcat (recombinant cathepsin L) [s⁻¹],Km (recombinant cathepsin V) [µM],kcat (recombinant cathepsin V) [s⁻¹],Cy5 fluorescence in frozen tumor sections [1],overall absolute fluorescence intensity in the tumors compared to non-lysosomotropic substrates 2CQ and 6CQ [1],"increase in catalytic efficiency, spacer n=6 relative to n=2 analog (recombinant cathepsin L) [fold]","increase in efficiency, spacer n=6 relative to n=2 analog (recombinant cathepsin V) [fold]",clearance rate and signal in tumors relative to the non-LLE substrate [2]
CC[N+]1=C(C=CC=CC=C2N(CCCCCC(=O)NCCCC[C@H](NC(=O)[C@H](Cc3ccccc3)NC(=O)OCc3ccccc3)C(=O)NCCNC(=O)C3CCN(S(=O)(=O)c4ccccc4-c4c5ccc(=[N+]6CCc7cc(S(=O)(=O)O)ccc76)cc-5oc5cc(N6CCc7cc(S(=O)(=O)O)ccc76)ccc45)CC3)c3ccc(S(=O)(=O)O)cc3C2(C)C)C(C)(C)c2cc(S(=O)(=O)O)ccc21 [2CQ],6.4 ± 0.8,0.141,5 ± 0.4,0.014,,,,,
CC[N+]1=C(C=CC=CC=C2N(CCCCCC(=O)NCCNC(=O)[C@H](CCCCNC(=O)C3CCN(S(=O)(=O)c4ccccc4-c4c5ccc(=[N+]6CCc7cc(S(=O)(=O)O)ccc76)cc-5oc5cc(N6CCc7cc(S(=O)(=O)O)ccc76)ccc45)CC3)NC(=O)[C@H](Cc3ccccc3)NC(=O)OCc3ccccc3)c3ccc(S(=O)(=O)O)cc3C2(C)C)C(C)(C)c2cc(S(=O)(=O)O)ccc21 [2QC],6.5 ± 1.5,0.095,0.9 ± 0.1,0.008,observed,higher and brighter,,,
CC[N+]1=C(C=CC=CC=C2N(CCCCCC(=O)NCCCC[C@H](NC(=O)[C@H](Cc3ccccc3)NC(=O)OCc3ccccc3)C(=O)NCCCCNC(=O)C3CCN(S(=O)(=O)c4ccccc4-c4c5ccc(=[N+]6CCc7cc(S(=O)(=O)O)ccc76)cc-5oc5cc(N6CCc7cc(S(=O)(=O)O)ccc76)ccc45)CC3)c3ccc(S(=O)(=O)O)cc3C2(C)C)C(C)(C)c2cc(S(=O)(=O)O)ccc21 [4CQ],4.6 ± 0.7,0.283,3.4 ± 0.3,0.073,,,,,
CC[N+]1=C(C=CC=CC=C2N(CCCCCC(=O)NCCCCNC(=O)[C@H](CCCCNC(=O)C3CCN(S(=O)(=O)c4ccccc4-c4c5ccc(=[N+]6CCc7cc(S(=O)(=O)O)ccc76)cc-5oc5cc(N6CCc7cc(S(=O)(=O)O)ccc76)ccc45)CC3)NC(=O)[C@H](Cc3ccccc3)NC(=O)OCc3ccccc3)c3ccc(S(=O)(=O)O)cc3C2(C)C)C(C)(C)c2cc(S(=O)(=O)O)ccc21 [4QC],8.6 ± 1.3,0.396,4.8 ± 0.2,0.188,,,,,
CC[N+]1=C(C=CC=CC=C2N(CCCCCC(=O)NCCCC[C@H](NC(=O)[C@H](Cc3ccccc3)NC(=O)OCc3ccccc3)C(=O)NCCCCCCNC(=O)C3CCN(S(=O)(=O)c4ccccc4-c4c5ccc(=[N+]6CCc7cc(S(=O)(=O)O)ccc76)cc-5oc5cc(N6CCc7cc(S(=O)(=O)O)ccc76)ccc45)CC3)c3ccc(S(=O)(=O)O)cc3C2(C)C)C(C)(C)c2cc(S(=O)(=O)O)ccc21 [6CQ],5.4 ± 0.5,0.487,6.8 ± 0.4,0.164,,,4,8,
CCN(CC)c1ccc2c(C(C)(C)C)cc(C=CC=CC=C3N(CCCCCC(=O)NCCCCCCNC(=O)[C@H](CCCCNC(=O)CCCCCN4C(=CC=C5CCCC(C=CC6=[N+](CCCS(=O)(=O)O)c7ccc(N(CCCS(=O)(=O)O)CCCS(=O)(=O)O)cc7C6(C)C)=C5Cl)C(C)(C)c5c4ccc4cc(S(=O)(=O)O)ccc54)NC(=O)[C@H](Cc4ccccc4)NC(=O)OCc4ccccc4)c4ccc(S(=O)(=O)O)cc4C3(C)C)[o+]c2c1 [6QCNIR],,,,,,,,,slower clearance rate and brighter signal
CC[N+]1=C(C=CC=CC=C2N(CCCCCC(=O)NCCCCCCNC(=O)[C@H](CCCCNC(=O)C3CCN(S(=O)(=O)c4ccccc4-c4c5ccc(=[N+]6CCc7cc(S(=O)(=O)O)ccc76)cc-5oc5cc(N6CCc7cc(S(=O)(=O)O)ccc76)ccc45)CC3)NC(=O)[C@H](Cc3ccccc3)NC(=O)OCc3ccccc3)c3ccc(S(=O)(=O)O)cc3C2(C)C)C(C)(C)c2cc(S(=O)(=O)O)ccc21 [6QC],5.3 ± 0.8,0.458,4.4 ± 0.2,0.150,observed,higher and brighter,6,4,

# Source: patent US12459972B2, “Protease-activated contrast agents for in vivo imaging” (THE BOARD OF TRUSTEES OF THE LELAND STANFORD JUNIOR …, priority 2015, dated 2025)
